# Experimental data from PMC12446468, “Anti-inflammatory and cytotoxic assessment of flavonoids isolated from Viola odorata flowers with computer-guided docking study” (Scientific Reports, 2025).
# Experiments:
# [1] = molecular target: T1, 5-LOX enzyme (human recombinant) (Homo sapiens, UniProt P09917); experiment: 5-lipoxygenase inhibition assay (5-LOX kit); assay type: biochemical; settings: mean ± SE, n = 3
# T1 construct: purchased Sigma-Aldrich 437996
# T1 sequence (P09917 1-674): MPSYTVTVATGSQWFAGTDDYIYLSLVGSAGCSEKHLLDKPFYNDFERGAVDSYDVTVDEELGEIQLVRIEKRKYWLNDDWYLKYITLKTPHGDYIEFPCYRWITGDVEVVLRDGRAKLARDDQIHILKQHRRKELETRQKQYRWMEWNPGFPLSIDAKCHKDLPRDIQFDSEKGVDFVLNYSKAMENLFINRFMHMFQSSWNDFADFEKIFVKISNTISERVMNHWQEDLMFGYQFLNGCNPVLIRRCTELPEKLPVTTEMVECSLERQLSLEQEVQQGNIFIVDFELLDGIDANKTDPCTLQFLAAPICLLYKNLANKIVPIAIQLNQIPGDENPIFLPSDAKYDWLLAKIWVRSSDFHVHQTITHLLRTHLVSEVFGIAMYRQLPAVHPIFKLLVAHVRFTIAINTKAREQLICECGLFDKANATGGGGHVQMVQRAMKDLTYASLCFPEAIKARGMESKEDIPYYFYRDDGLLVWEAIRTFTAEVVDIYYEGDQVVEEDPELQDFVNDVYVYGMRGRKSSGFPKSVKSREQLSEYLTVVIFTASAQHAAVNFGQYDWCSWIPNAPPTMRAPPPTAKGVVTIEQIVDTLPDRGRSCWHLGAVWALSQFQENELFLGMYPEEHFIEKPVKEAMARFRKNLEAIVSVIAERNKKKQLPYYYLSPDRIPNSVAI
# Excerpt: The requirements for High-Performance Liquid Chromatography (HPLC) and all compounds tested were of the utmost analytical purity. […] COX-1 and COX-2 (ovine/human), as well as the 5-LOX enzyme (human recombinant) were obtained from Sigma-Aldrich. Dulbecco’s Modified Eagle’s Medium (DMEM), along with penicillin/streptomycin and L-glutamine, were acquired from Gibco BRL, California, USA. Fetal bovine serum (FBS) and 3-(4, 5-dimethylthiazol-2-yl)-2, 5-[…] (MTT) were supplied by Sigma-Aldrich, St. Louis, Missouri, USA.
# The methanolic extract of V. odorata flowers and isolated flavonoids were subjected to an in vitro anti-inflammatory assessment by inhibiting two isoenzymes, cyclooxygenase COX-1 and COX-2 (ovine/human), as well as the 5-LOX enzyme (human recombinant).
# [2] = test system: hepatocellular carcinoma (HepG2); experiment: MTT cytotoxicity assay, HepG2; assay type: cell-based, human; settings: Homo sapiens, HepG2, 48 h, read-out: IC50
# Method: (§1) The assessment of cytotoxicity for the methanolic extract and isolated flavonoids was performed under controlled and sterile conditions within a Class II A2 Laminar flow biosafety cabinet. The carcinoma cell lines used in this study was obtained from Nawah Scientific Inc. (Cairo, Egypt). The cells were cultured in Dulbecco’s Modified Eagle’s Medium, enriched with 10% heat-inactivated fetal bovine serum, 100 U/ml penicillin, and 100 μg/ml streptomycin sulfate, maintained at […] in humidified incubators with 5% CO2. Upon reaching approximately 80% confluence, the cells were subcultured using a trypsin–EDTA solution. Harvesting occurred during the logarithmic growth phase. The methanolic extract and isolated flavonoids were dissolved in DMSO and stored at − 20 °C. For each experimental trial, the stock solutions were mixed with the culture medium to obtain the required final concentrations.
# (§2) The effectiveness of the extract was compared to that of the reference drug, Doxorubicin. The percentage of cell viability was calculated by taking the ratio of the absorbance of the plant extract to that of the control, multiplied by 100. Furthermore, the IC50 value of the plant extract was determined using Sigma Plot software version 11 (Spw.exe) (https://sigmaplot.software.informer.com/11.0/).
# [3] = MTT cytotoxicity assay, HepG2; assay type: cell-based, human; settings: human, HepG2 cells (hepatocellular carcinoma), 48 h
# Method: as §1, §2
structure (smiles),measurement,setting,value
"COc1c(O)cc2oc(-c3ccccc3)c(OC)c(=O)c2c1O [5,7-Dihydroxy-3,6-dimethoxyflavone]",IC50,[1],3.14 µM
same,IC50,[2],32 µg/mL
same,"cytotoxicity at 48 h, 6.25 µg/ml","[3]; HepG2, 6.25 ug/ml",24.9%
same,"viability at 48 h, 6.25 µg/ml","[3]; HepG2, 6.25 ug/ml, read-out: % Cell viability",75.1%
same,"cytotoxicity at 48 h, 12.5 µg/ml","[3]; HepG2, 12.5 ug/ml",35.4%
same,"viability at 48 h, 12.5 µg/ml","[3]; HepG2, 12.5 ug/ml, read-out: % Cell viability",64.9%
same,"cytotoxicity at 48 h, 25 µg/ml","[3]; HepG2, 25 ug/ml",55.9%
same,"viability at 48 h, 25 µg/ml","[3]; HepG2, 25 ug/ml, read-out: % Cell viability",44.1%
same,"cytotoxicity at 48 h, 50 µg/ml","[3]; HepG2, 50 ug/ml",69.9%
same,"viability at 48 h, 50 µg/ml","[3]; HepG2, 50 ug/ml, read-out: % Cell viability",30.1%
same,"cytotoxicity at 48 h, 100 µg/ml","[3]; HepG2, 100 ug/ml",83.5%
same,"viability at 48 h, 100 µg/ml","[3]; HepG2, 100 ug/ml, read-out: % Cell viability",16.5%
